Target: T1, human OX2 receptor (Homo sapiens, UniProt O43614)
T1 sequence (O43614 1-444): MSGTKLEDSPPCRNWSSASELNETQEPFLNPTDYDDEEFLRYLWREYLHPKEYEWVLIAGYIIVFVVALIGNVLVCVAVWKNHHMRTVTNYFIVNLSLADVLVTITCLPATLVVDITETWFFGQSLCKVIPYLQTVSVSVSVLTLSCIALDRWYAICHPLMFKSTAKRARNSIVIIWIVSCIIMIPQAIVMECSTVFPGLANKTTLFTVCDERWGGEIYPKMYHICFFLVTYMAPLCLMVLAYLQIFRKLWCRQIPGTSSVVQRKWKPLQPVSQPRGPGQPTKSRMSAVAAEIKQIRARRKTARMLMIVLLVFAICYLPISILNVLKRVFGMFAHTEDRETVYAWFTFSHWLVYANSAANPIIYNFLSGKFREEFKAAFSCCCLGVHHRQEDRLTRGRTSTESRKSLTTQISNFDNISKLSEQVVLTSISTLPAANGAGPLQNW
Assay: IPone accumulation assay, CHO cells expressing OX2 (antagonism of orexin A)
Type: cell-based
Conditions: CHO human OX2, orexin A EC80 challenge (40 nM), read-out: fpKb average OX2 (converted)
Experimental: Generation of CHO stable cell lines expressing the human OX1R and OX2R. Stable cell lines for the human OX1R and OX2R receptors were generated through the transfection of CHO cells using the transfection reagent Genejuice (Novagen number 70967) and cDNA coding for either the human OX1R or OX2R. Cells were cultured in Sigma Nutrient Mixture F-12 Ham media (catalog number N6658) supplemented with 10% heat-inactivated FBS. Forty-eight hours after transfection, cells were harvested and placed under geneticin selection by culturing in Sigma Nutrient Mixture F-12 Ham media supplemented with 10% heat-inactivated FBS and geneticin (ThermoFisher Catalog number: 10131035). Selection of the final stable clone for each receptor was made on the basis of receptor expression, assay signal to noise and robustness though increasing passage. Selected clones for the human OX1R and OX2R were then frozen down into liquid nitrogen using Cell Freezing Medium-DMSO (Sigma-Aldrich catalog number: C6164).
IPone accumulation assay. A CHO cell line stably expressing either human OX1 or OX2 receptor was used with the IPone HTRF assay kit (CisBio: Part #62IPAPEJ) to measure receptor activation. The assay was optimised to measure the ability (potency; fpKb) of antagonists to reduce agonist (orexin A)-induced inositol phosphate turnover. Briefly, cells were plated onto half area 96-well white walled plates at a density of 12,500 cells/well. Sixteen hours post-plating cell growth media was replaced with antagonist concentration-response curve diluted in stimulation buffer (supplied with the kit). Cells were incubated in a humidified incubator (37° C.) for 30 min before an EC80 challenge concentration (˜20 nM (OX1) and 40 nM (OX2)) of orexin A (Tocris catalogue number 1455). After 30 min stimulation in a humidified incubator (37° C.) the assay was terminated by the addition of detection mixture as per manufacturer's instructions. The concentration of compound which reduced orexin-A stimulated turnover of inositol phosphates by 50% (IC50) was calculated by fitting to a four parameter sigmoidal dose response curve. The IC50 values were converted to fpKB values using the orexin A pEC50 value estimated on each plate as well as the challenge concentration interpolated from the orexin A control curve.

SMILES	Kb
COc1ncc(N2CCc3c(F)cccc3N(Cc3c(C)cc(F)cc3F)C2=O)cc1S(C)(=O)=O [Example 18, 1-(2,4-difluoro-6-methylbenzyl)-6-fluoro-3-[6-methoxy-5-(methylsulfonyl)pyridin-3-yl]-1,3,4,5-tetrahydro-2H-1,3-benzodiazepin-2-one]	> 3160 nM
COc1nc(OC)c(C(C)(F)F)cc1N1CCc2c(F)cccc2N(Cc2c(F)cc(Br)cc2F)C1=O [Example 23, 1-(4-bromo-2,6-difluorobenzyl)-3-[5-(1,1-difluoroethyl)-2,6-dimethoxypyridin-3-yl]-6-fluoro-1,3,4,5-tetrahydro-2H-1,3-benzodiazepin-2-one]	> 1580 nM
COCc1cc(F)c(CN2C(=O)N(c3cc(C(C)(F)F)c(OC)nc3OC)CCc3c(F)cccc32)c(F)c1 [Example 24, 3-[5-(1,1-difluoroethyl)-2,6-dimethoxypyridin-3-yl]-1-[2,6-difluoro-4-(methoxymethyl)benzyl]-6-fluoro-1,3,4,5-tetrahydro-2H-1,3-benzodiazepin-2-one]	> 3160 nM
COc1cc(F)c(CN2C(=O)N(c3cc(S(C)(=O)=O)c(OC)nc3OC)CCc3c(F)cccc32)c(F)c1 [Example 25, 1-(2,6-difluoro-4-methoxybenzyl)-3-[2,6-dimethoxy-5-(methylsulfonyl)pyridin-3-yl]-6-fluoro-1,3,4,5-tetrahydro-2H-1,3-benzodiazepin-2-one]	> 3980 nM
CSc1cc(N2CCc3c(F)cccc3N(Cc3c(F)cc(Br)cc3F)C2=O)ccc1C [Example 26, 1-(4-bromo-2,6-difluorobenzyl)-6-fluoro-3-[4-methyl-3-(methylsulfanyl)phenyl]-1,3,4,5-tetrahydro-2H-1,3-benzodiazepin-2-one]	> 794 nM
Cc1ccc(N2CCc3c(F)cccc3N(Cc3c(F)cc(Br)cc3F)C2=O)cc1S(C)(=O)=O [Example 27, 1-(4-bromo-2,6-difluorobenzyl)-6-fluoro-3-[4-methyl-3-(methylsulfonyl)phenyl]-1,3,4,5-tetrahydro-2H-1,3-benzodiazepin-2-one]	> 3160 nM
CCCc1cc(F)c(CN2C(=O)N(c3ccc(C)c(S(C)(=O)=O)c3)CCc3c(F)cccc32)c(F)c1 [Example 28, 1-(2,6-difluoro-4-propylbenzyl)-6-fluoro-3-[4-methyl-3-(methylsulfonyl)phenyl]-1,3,4,5-tetrahydro-2H-1,3-benzodiazepin-2-one]	> 3980 nM
Cc1cc(C)c(S(C)(=O)=O)cc1N1CCc2ccccc2N(Cc2c(F)cc(Br)cc2F)C1=O [Example 29, 1-(4-bromo-2,6-difluorobenzyl)-3-[2,4-dimethyl-5-(methylsulfonyl)phenyl]-1,3,4,5-tetrahydro-2H-1,3-benzodiazepin-2-one]	398 nM
Cc1cc(C)c(S(C)(=O)=O)cc1N1CCc2ccccc2N(Cc2c(F)cc(OC(C)C)cc2F)C1=O [Example 30, 1-[2,6-difluoro-4-(propan-2-yloxy)benzyl]-3-[2,4-dimethyl-5-(methylsulfonyl)phenyl]-1,3,4,5-tetrahydro-2H-1,3-benzodiazepin-2-one]	794 nM
Cc1cc(C)c(S(C)(=O)=O)cc1N1CCc2c(F)cccc2N(Cc2c(F)cc(Br)cc2F)C1=O [Example 31, 1-(4-bromo-2,6-difluorobenzyl)-3-[2,4-dimethyl-5-(methylsulfonyl)phenyl]-6-fluoro-1,3,4,5-tetrahydro-2H-1,3-benzodiazepin-2-one]	> 316 nM
Cc1ncc(N2CCc3c(F)cccc3N(Cc3c(F)cc(Br)cc3F)C2=O)cc1C(C)(F)F [Example 32, 1-(4-bromo-2,6-difluorobenzyl)-3-[5-(1,1-difluoroethyl)-6-methylpyridin-3-yl]-6-fluoro-1,3,4,5-tetrahydro-2H-1,3-benzodiazepin-2-one]	> 631 nM
COCc1cc(F)c(CN2C(=O)N(c3cnc(C)c(C(C)(F)F)c3)CCc3c(F)cccc32)c(F)c1 [Example 33, 3-[5-(1,1-difluoroethyl)-6-methylpyridin-3-yl]-1-[2,6-difluoro-4-(methoxymethyl)benzyl]-6-fluoro-1,3,4,5-tetrahydro-2H-1,3-benzodiazepin-2-one]	1000 nM
CCCc1cc(F)c(CN2C(=O)N(c3cnc(C)c(C(C)(F)F)c3)CCc3c(F)cccc32)c(F)c1 [Example 34, 3-[5-(1,1-difluoroethyl)-6-methylpyridin-3-yl]-1-(2,6-difluoro-4-propylbenzyl)-6-fluoro-1,3,4,5-tetrahydro-2H-1,3-benzodiazepin-2-one]	> 2510 nM
Cc1ncc(N2CCc3c(F)cccc3N(Cc3c(F)cc(Br)cc3F)C2=O)cc1OC(F)F [Example 37, 1-(4-bromo-2,6-difluorobenzyl)-3-[5-(difluoromethoxy)-6-methylpyridin-3-yl]-6-fluoro-1,3,4,5-tetrahydro-2H-1,3-benzodiazepin-2-one]	> 3980 nM

— patent US20210179578A1, “OX1 ANTAGONISTS” (Heptares Therapeutics Limited, priority 2017, published 2021)
